Measurements from PubChem BioAssay AID256 (DTP/NCI, 2004).
Several values for one entry are separate records, joined by “and”; a condition that tells them apart may be missing. Equal entries are not always repeated. Toxic doses and inconclusive results are not listed. How the source made its calls: active means survival T/C of 150% or more; inactive means T/C below 125% in these data.

Test system: CD2F1 mice, L1210 leukemia ip, survival T/C
Test: NCI In Vivo Anticancer Drug Screen. Data for tumor model L1210 Leukemia (intraperitoneal) in CD2F1 (CDF1) mice
Settings: higher = longer survival
In short: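 Tumor-bearing mice (transplanted tumor) were split into treated and vehicle control groups, and the measured endpoint of each treated group was divided by that of its vehicle controls.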

[1] = endpoint: mean survival time, dose: 100.0 mg/kg/injection, schedule: Q01DX009 (ip), vehicle: saline with Tween-80
[2] = endpoint: mean survival time, dose: 100.0 mg/kg/injection, schedule: Q04DX003 (ip), vehicle: saline with Tween-80
[3] = endpoint: mean survival time, dose: 200.0 mg/kg/injection, schedule: Q01DX009 (ip), vehicle: saline with Tween-80
[4] = endpoint: mean survival time, dose: 200.0 mg/kg/injection, schedule: Q04DX003 (ip), vehicle: saline with Tween-80
[5] = endpoint: mean survival time, dose: 400.0 mg/kg/injection, schedule: Q01DX009 (ip), vehicle: saline with Tween-80
[6] = endpoint: mean survival time, dose: 400.0 mg/kg/injection, schedule: Q04DX003 (ip), vehicle: saline with Tween-80
[7] = endpoint: mean survival time, dose: 12.5 mg/kg/injection, schedule: Q01DX001 (ip), vehicle: saline with Tween-80
[8] = endpoint: mean survival time, dose: 25.0 mg/kg/injection, schedule: Q01DX001 (ip), vehicle: saline with Tween-80
[9] = endpoint: mean survival time, dose: 100.0 mg/kg/injection, schedule: Q01DX001 (ip), vehicle: saline with Tween-80
[10] = endpoint: mean survival time, dose: 200.0 mg/kg/injection, schedule: Q01DX001 (ip), vehicle: saline with Tween-80
[11] = endpoint: mean survival time, dose: 400.0 mg/kg/injection, schedule: Q01DX001 (ip), vehicle: saline with Tween-80

Measured: T/C

COc1ccc2c(ccc3nc(C)[nH]c(=O)c32)c1
inactive: endpoint: mean survival time, dose: 25.0 mg/kg/injection, schedule: Q01DX001 (ip), vehicle: Klucel (hydroxypropylcellulose) (HPC) 102 % of control | endpoint: mean survival time, dose: 50.0 mg/kg/injection, schedule: Q01DX001 (ip), vehicle: Klucel (hydroxypropylcellulose) (HPC) 94 % of control | endpoint: mean survival time, dose: 100.0 mg/kg/injection, schedule: Q01DX001 (ip), vehicle: Klucel (hydroxypropylcellulose) (HPC) 90 % of control

Nc1ccc2c(S(=O)(=O)O)ccc(O)c2c1
inactive: [1] 100 % of control | [2] 96 % of control | [3] 93 % of control | [4] 96 % of control | [5] 90 % of control | [6] 98 % of control

Cc1ccc(C(=O)c2nnc(C(=O)c3ccc(C)cc3)nn2)cc1
inactive: [2] 92 % of control | [4] 92 % of control | [6] 86 % of control

O=C1c2cccc(O)c2C(=O)c2cccc(O)c21
inactive: [2] 102 % of control | [4] 94 % of control | [6] 105 % of control

CCCCCCCCCCCCCCCC[N+]1(C)CCSCC1
inactive: endpoint: mean survival time, dose: 0.78 mg/kg/injection, schedule: Q01DX009 (ip), vehicle: saline 93 % of control and 103 % of control | endpoint: mean survival time, dose: 1.56 mg/kg/injection, schedule: Q04DX003 (ip), vehicle: saline 106 % of control | endpoint: mean survival time, dose: 3.13 mg/kg/injection, schedule: Q01DX001 (ip), vehicle: saline 104 % of control | endpoint: mean survival time, dose: 3.13 mg/kg/injection, schedule: Q04DX003 (ip), vehicle: saline 110 % of control | endpoint: mean survival time, dose: 6.25 mg/kg/injection, schedule: Q01DX001 (ip), vehicle: saline 104 % of control | endpoint: mean survival time, dose: 6.25 mg/kg/injection, schedule: Q04DX003 (ip), vehicle: saline 104 % of control | [7] 97 % of control | endpoint: mean survival time, dose: 12.5 mg/kg/injection, schedule: Q01DX001 (ip), vehicle: saline 104 % of control | endpoint: mean survival time, dose: 12.5 mg/kg/injection, schedule: Q04DX003 (ip), vehicle: saline 102 % of control | [8] 95 % of control | endpoint: mean survival time, dose: 25.0 mg/kg/injection, schedule: Q01DX001 (ip), vehicle: saline 104 % of control | endpoint: mean survival time, dose: 25.0 mg/kg/injection, schedule: Q01DX009 (ip), vehicle: saline 87 % of control | endpoint: mean survival time, dose: 25.0 mg/kg/injection, schedule: Q04DX002 (ip), vehicle: saline 88 % of control | endpoint: mean survival time, dose: 50.0 mg/kg/injection, schedule: Q01DX001 (ip), vehicle: saline with Tween-80 100 % of control

NC(N)=N/N=C/c1cc(Cl)cc(Cl)c1O
inactive: endpoint: mean survival time, dose: 18.8 mg/kg/injection, schedule: Q01DX009 (ip), vehicle: saline 108 % of control | endpoint: mean survival time, dose: 18.8 mg/kg/injection, schedule: Q04DX003 (ip), vehicle: saline 106 % of control | endpoint: mean survival time, dose: 37.5 mg/kg/injection, schedule: Q01DX009 (ip), vehicle: saline 109 % of control | endpoint: mean survival time, dose: 37.5 mg/kg/injection, schedule: Q04DX003 (ip), vehicle: saline 112 % of control | endpoint: mean survival time, dose: 75.0 mg/kg/injection, schedule: Q01DX009 (ip), vehicle: saline 94 % of control | endpoint: mean survival time, dose: 75.0 mg/kg/injection, schedule: Q04DX003 (ip), vehicle: saline 114 % of control

NC(CCSCc1ccc(N(CCCl)CCCl)cc1)C(=O)O (stereo unspecified)
active: endpoint: mean survival time, dose: 14.0 mg/kg/injection, schedule: Q01DX009 (ip), vehicle: carboxymethylcellulose (CMC) 152 % of control

Nc1nc(N)nc(Cc2ccccc2)n1
inactive: [9] 104 % of control | [10] 103 % of control | [11] 95 % of control

N=c1c2ncn(C3OC(CO)C(O)C3O)c2ncn1Cc1ccc([N+](=O)[O-])cc1 (stereo unspecified)
inactive: endpoint: mean survival time, dose: 100.0 mg/kg/injection, schedule: Q01DX001 (ip), vehicle: carboxymethylcellulose (CMC) 97 % of control | endpoint: mean survival time, dose: 200.0 mg/kg/injection, schedule: Q01DX001 (ip), vehicle: carboxymethylcellulose (CMC) 104 % of control | endpoint: mean survival time, dose: 400.0 mg/kg/injection, schedule: Q01DX001 (ip), vehicle: carboxymethylcellulose (CMC) 97 % of control

Oc1ccccc1C=Nc1ccc(N=Cc2ccccc2O)cc1
inactive: [2] 88 % of control | [4] 91 % of control | [6] 100 % of control

COC(=O)/C=C/N(CCF)CCF
inactive: endpoint: mean survival time, dose: 1.0 mg/kg/injection, schedule: Q01DX Z (ip), vehicle: saline 94 % of control | endpoint: mean survival time, dose: 3.0 mg/kg/injection, schedule: Q01DX Z (ip), vehicle: saline 108 % of control

CCC1(O)C(=O)OCc2c1cc1n(c2=O)Cc2cc3cc(OC)c(OC)cc3nc2-1 (stereo unspecified)
inactive: endpoint: median survival time, dose: 6.25 mg/kg/injection, schedule: Q04DX002 (ip), vehicle: saline with Tween-80 103 % of control | endpoint: median survival time, dose: 12.5 mg/kg/injection, schedule: Q04DX002 (ip), vehicle: saline with Tween-80 101 % of control | endpoint: median survival time, dose: 25.0 mg/kg/injection, schedule: Q04DX002 (ip), vehicle: saline with Tween-80 103 % of control | endpoint: median survival time, dose: 50.0 mg/kg/injection, schedule: Q04DX002 (ip), vehicle: saline with Tween-80 94 % of control

Cc1cc(C)cc(NCCC#N)c1
inactive: endpoint: mean survival time, dose: 100.0 mg/kg/injection, schedule: Q01DX009 (ip), vehicle: other 98 % of control | endpoint: mean survival time, dose: 100.0 mg/kg/injection, schedule: Q04DX003 (ip), vehicle: other 106 % of control | endpoint: mean survival time, dose: 200.0 mg/kg/injection, schedule: Q01DX009 (ip), vehicle: other 98 % of control | endpoint: mean survival time, dose: 200.0 mg/kg/injection, schedule: Q04DX003 (ip), vehicle: other 100 % of control | endpoint: mean survival time, dose: 400.0 mg/kg/injection, schedule: Q01DX009 (ip), vehicle: other 98 % of control | endpoint: mean survival time, dose: 400.0 mg/kg/injection, schedule: Q04DX003 (ip), vehicle: other 98 % of control

c1ccc(C[As+](c2ccccc2)(c2ccccc2)c2ccccc2)cc1
inactive: endpoint: mean survival time, dose: 25.0 mg/kg/injection, schedule: Q04DX002 (ip), vehicle: saline with Tween-80 96 % of control

O=C(COc1ccc(Br)cc1)Nc1cc(Cl)ccc1Cl
inactive: endpoint: mean survival time, dose: 100.0 mg/kg/injection, schedule: Q04DX002 (ip), vehicle: saline with Tween-80 87 % of control | endpoint: mean survival time, dose: 200.0 mg/kg/injection, schedule: Q04DX002 (ip), vehicle: saline with Tween-80 95 % of control | endpoint: mean survival time, dose: 400.0 mg/kg/injection, schedule: Q04DX002 (ip), vehicle: saline with Tween-80 91 % of control

CCCC/C=C\C=C/CCCC
inactive: [9] 102 % of control | [10] 102 % of control | [11] 94 % of control

Nc1ccc(N=Nc2ccc(N(CCCl)CCCl)cc2)cc1
inactive: endpoint: mean survival time, dose: 33.0 mg/kg/injection, schedule: Q01DX001 (ip), vehicle: Klucel (hydroxypropylcellulose) (HPC) 96 % of control | endpoint: mean survival time, dose: 66.0 mg/kg/injection, schedule: Q01DX001 (ip), vehicle: Klucel (hydroxypropylcellulose) (HPC) 91 % of control | endpoint: mean survival time, dose: 132.0 mg/kg/injection, schedule: Q01DX001 (ip), vehicle: Klucel (hydroxypropylcellulose) (HPC) 91 % of control

NC(Cc1cccc(NP(=S)(N2CC2)N2CC2)c1)C(=O)O (stereo unspecified)
inactive: endpoint: mean survival time, dose: 100.0 mg/kg/injection, schedule: Q01DX009 (ip), vehicle: saline 119 % of control | endpoint: mean survival time, dose: 100.0 mg/kg/injection, schedule: Q04DX003 (ip), vehicle: saline 113 % of control | endpoint: mean survival time, dose: 200.0 mg/kg/injection, schedule: Q01DX009 (ip), vehicle: saline 100 % of control

Cc1ccc(C(=O)CCl)c(C)c1
inactive: endpoint: mean survival time, dose: 25.0 mg/kg/injection, schedule: Q04DX003 (ip), vehicle: Klucel (hydroxypropylcellulose) (HPC) 102 % of control | endpoint: mean survival time, dose: 50.0 mg/kg/injection, schedule: Q04DX003 (ip), vehicle: Klucel (hydroxypropylcellulose) (HPC) 103 % of control

CC(=O)OC1CCC2(C)C3CCC4(C)C(OC(=O)c5ccccc5)CCC4C3C3C(=O)OC32C1 (stereo unspecified)
inactive: [9] 91 % of control | [10] 90 % of control and 96 % of control | [11] 88 % of control

O=C(OCCC[P+](c1ccccc1)(c1ccccc1)c1ccccc1)c1ccccc1
inactive: endpoint: mean survival time, dose: 6.25 mg/kg/injection, schedule: Q01DX001 (ip), vehicle: saline with Tween-80 109 % of control | endpoint: mean survival time, dose: 6.25 mg/kg/injection, schedule: Q01DX009 (ip), vehicle: saline with Tween-80 110 % of control | [7] 114 % of control | endpoint: mean survival time, dose: 12.5 mg/kg/injection, schedule: Q01DX009 (ip), vehicle: saline with Tween-80 114 % of control | [8] 115 % of control | endpoint: mean survival time, dose: 25.0 mg/kg/injection, schedule: Q01DX009 (ip), vehicle: saline with Tween-80 112 % of control

COC(=O)c1cc2ccccc2o1
inactive: [1] 100 % of control | [2] 108 % of control | [3] 100 % of control | [4] 108 % of control | [5] 105 % of control | [6] 94 % of control

C[N+](C)(C)C1(Cc2ccc(Br)cc2)c2ccccc2-c2ccccc21
inactive: endpoint: mean survival time, dose: 6.25 mg/kg/injection, schedule: Q04DX003 (ip), vehicle: saline with Tween-80 88 % of control | endpoint: mean survival time, dose: 12.5 mg/kg/injection, schedule: Q04DX003 (ip), vehicle: saline with Tween-80 88 % of control | endpoint: mean survival time, dose: 25.0 mg/kg/injection, schedule: Q04DX003 (ip), vehicle: saline with Tween-80 87 % of control | [2] 92 % of control
